From the supplement of paper PMC11208160

Assay: recombinant barcode read abundance after kanamycin selection (control-corrected) (log10(CPM+1)); higher = more efficient recombination; sequences stand for … in AGTGCAGAGAAAATCGGCCAGTTTTCTCTGCCTGCAGTCCGCATGCCGT…ATTTATGCAGCGGACTGCCTTTCTCCCAAAGTGATAAACCGGACAGTATCATGGACCGGTTTTCCCGGTAATCCGTATTTGCAAGGTTGGTTTCACT; site = the 11-nt target
How it was run: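 Pooled oligos, each joining a target to an IS621 bridge RNA target-binding loop, were cloned and co-electroporated with a donor plasmid into E. coli. Selective plates carried chloramphenicol/ampicillin/kanamycin and 0.1 mM IPTG, while chloramphenicol/ampicillin LB agar served as control, with two replicates of each. Recombination efficiency rests on averaged, control-corrected counts per million of barcodes at recombinant junctions, shown as log10(CPM+1).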

Row | Sequence | recombinant barcode read abundance (log10)
1 | GTCGCCCCTTGGGTTCTAACCTGTTGCTAGG [GTCGCCCCTTA_LTGcore_CT_RTGcore_CC] (site GTCGCCCCTTA) (LTG core: CT, RTG core: CC) | 0.238
2 | GTCGCCCGCTGGGTTCTAACCTGTTGCTAAG [GTCGCCCCTTA_LTGcore_GC_RTGcore_CT] (site GTCGCCCCTTA) (LTG core: GC, RTG core: CT) | 0.224
3 | GTCGCCCTGTGGGTTCTAACCTGTTGCTACA [GTCGCCCCTTA_LTGcore_TG_RTGcore_TG] (site GTCGCCCCTTA) (LTG core: TG, RTG core: TG) | 0.51
4 | TAAGAATAGTGGGTTCTAACCTGTTGCCTAG [TAAGAATCTAG_LTGcore_AG_RTGcore_CT] (site TAAGAATCTAG) (LTG core: AG, RTG core: CT) | 0.079
5 | TAAGAATAGTGGGTTCTAACCTGTTGCCTCT [TAAGAATCTAG_LTGcore_AG_RTGcore_AG] (site TAAGAATCTAG) (LTG core: AG, RTG core: AG) | 0.0922
6 | TAAGAATCTTGGGTTCTAACCTGTTGCCTAA [TAAGAATCTAG_LTGcore_CT_RTGcore_TT] (site TAAGAATCTAG) (LTG core: CT, RTG core: TT) | 0.175
7 | TAAGAATCTTGGGTTCTAACCTGTTGCCTGC [TAAGAATCTAG_LTGcore_CT_RTGcore_GC] (site TAAGAATCTAG) (LTG core: CT, RTG core: GC) | 0.359
8 | TAAGAATGCTGGGTTCTAACCTGTTGCCTAG [TAAGAATCTAG_LTGcore_GC_RTGcore_CT] (site TAAGAATCTAG) (LTG core: GC, RTG core: CT) | 0.216
9 | TAAGAATGGTGGGTTCTAACCTGTTGCCTAG [TAAGAATCTAG_LTGcore_GG_RTGcore_CT] (site TAAGAATCTAG) (LTG core: GG, RTG core: CT) | 0.0162
10 | TAAGAATTATGGGTTCTAACCTGTTGCCTAG [TAAGAATCTAG_LTGcore_TA_RTGcore_CT] (site TAAGAATCTAG) (LTG core: TA, RTG core: CT) | 0
11 | TAAGAATTCTGGGTTCTAACCTGTTGCCTAG [TAAGAATCTAG_LTGcore_TC_RTGcore_CT] (site TAAGAATCTAG) (LTG core: TC, RTG core: CT) | 0.0977
12 | TAAGAATTTTGGGTTCTAACCTGTTGCCTAG [TAAGAATCTAG_LTGcore_TT_RTGcore_CT] (site TAAGAATCTAG) (LTG core: TT, RTG core: CT) | 0.0485
13 | TAGAGGGAATGGGTTCTAACCTGTTGCGGAG [TAGAGGGCTCC_LTGcore_AA_RTGcore_CT] (site TAGAGGGCTCC) (LTG core: AA, RTG core: CT) | 0.247
14 | TAGAGGGACTGGGTTCTAACCTGTTGCGGAG [TAGAGGGCTCC_LTGcore_AC_RTGcore_CT] (site TAGAGGGCTCC) (LTG core: AC, RTG core: CT) | 0.265
15 | TAGAGGGCTTGGGTTCTAACCTGTTGCGGCG [TAGAGGGCTCC_LTGcore_CT_RTGcore_CG] (site TAGAGGGCTCC) (LTG core: CT, RTG core: CG) | 0.972
16 | TAGAGGGCTTGGGTTCTAACCTGTTGCGGGC [TAGAGGGCTCC_LTGcore_CT_RTGcore_GC] (site TAGAGGGCTCC) (LTG core: CT, RTG core: GC) | 1.36
17 | TAGAGGGCTTGGGTTCTAACCTGTTGCGGGG [TAGAGGGCTCC_LTGcore_CT_RTGcore_CC] (site TAGAGGGCTCC) (LTG core: CT, RTG core: CC) | 0.241
18 | TAGAGGGCTTGGGTTCTAACCTGTTGCGGTA [TAGAGGGCTCC_LTGcore_CT_RTGcore_TA] (site TAGAGGGCTCC) (LTG core: CT, RTG core: TA) | 0.144
19 | TAGAGGGGATGGGTTCTAACCTGTTGCGGTC [TAGAGGGCTCC_LTGcore_GA_RTGcore_GA] (site TAGAGGGCTCC) (LTG core: GA, RTG core: GA) | 0.0627
